Target: T1, MDM2 (MDM2-MDM4 RING domain heterodimer) (Homo sapiens, UniProt O15151+Q00987)
T1 construct: RING domain heterodimers of MDM2-MDM4, co-expressed in E. coli; with MDM4 (RING domain)
Test: microscale thermophoresis; thermofluor (Tm […] to […] °C); in vitro ubiquitination activation
Format: binding

T1 sequence (Q00987 428-491 limits assumed): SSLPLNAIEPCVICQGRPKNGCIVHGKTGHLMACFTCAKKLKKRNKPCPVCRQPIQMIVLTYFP
T1 sequence (O15151 428-490 limits assumed): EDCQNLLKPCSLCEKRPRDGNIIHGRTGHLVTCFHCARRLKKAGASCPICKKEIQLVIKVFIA

Kd: ~308 nM
Compound: O=C1Nc2ccc(Br)cc2C12NN=C(c1ccccc1)S2 (stereo not shown) [MMRi36]

Reference: publication PMC11700832, “Small-molecule MMRi36 induces apoptosis in p53-mutant lymphomas by targeting MDM2/MDM4/XIAP for degradation” (Frontiers in Oncology, 2024)
